pEC50: −log10 of the molar value.
What follows are compounds tested against human GPBAR1 receptor (Homo sapiens (Human), UniProt Q8TDU6) (assay: functional cAMP assay in CHO-dhfr(minus) cells expressing human GPBAR1 receptors). Details: CHO-dhfr(minus) cells expressing human GPBAR1, 30 min at 30° C.
Assay type: cell-based
Procedure: The final clone was verified by DNA sequence analysis. The plasmid was transfected into CHO cells deficient in dihydrofolate reductase activity (CHO-dhfr-) using Lipofectamine plus (Invitrogen). Clones were isolated in limited dilution conditions and identified by activities in the cAMP assay using lithocholic acid as agonist.
EC50 values were determined using Activity Base analysis (ID Business Solution, Limited). […] Specificity for GPBAR1 was tested in non-transfected CHO cells in the same assay as above.

Sequence of human GPBAR1 receptor (Q8TDU6 whole entry): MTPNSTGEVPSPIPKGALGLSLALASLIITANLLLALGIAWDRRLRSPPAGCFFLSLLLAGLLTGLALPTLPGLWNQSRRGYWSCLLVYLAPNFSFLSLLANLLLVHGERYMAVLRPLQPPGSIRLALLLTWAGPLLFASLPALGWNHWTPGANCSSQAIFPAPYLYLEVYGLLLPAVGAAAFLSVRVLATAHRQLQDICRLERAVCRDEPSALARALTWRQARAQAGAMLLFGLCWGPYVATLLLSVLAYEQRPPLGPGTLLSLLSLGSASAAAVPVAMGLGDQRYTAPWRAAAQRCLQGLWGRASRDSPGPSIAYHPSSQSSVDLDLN

Row | Structure (SMILES) | pEC50
1 | CN(C(=O)c1cc(C(F)(F)F)cc(S(C)(=O)=O)c1)c1cnccc1-c1cccnc1OC1CN(C(=O)OC(C)(C)C)C1 [Example 320, 3-{3′-[(3-Methanesulfonyl-5-trifluoromethyl-benzoyl)-methyl-amino]-[3,4′]bipyridinyl-2-yloxy}-azetidine-1-carboxylic acid tert-butyl ester] | 5.57
2 | CS(=O)(=O)CCN(C(=O)c1cc(C(F)(F)F)cc(S(C)(=O)=O)c1)c1cnccc1-c1ccccc1Cl [Example 288, N-[4-(2-Chloro-phenyl)-pyridin-3-yl]-3-methanesulfonyl-N-(2-methanesulfonyl-ethyl)-5-trifluoromethyl-benzamide] | 5.83
3 | CS(=O)(=O)c1cc(C(=O)N(CC(F)F)c2cnccc2-c2ccccc2F)cc(C(F)(F)F)c1 [Example 215, N-(2,2-Difluoro-ethyl)-N-[4-(2-fluoro-phenyl)-pyridin-3-yl]-3-methanesulfonyl-5-trifluoromethyl-benzamide] | 6.67
4 | COc1cc(F)ccc1-c1ccncc1N(C)C(=O)c1cc(C2COC2)cc(C(F)(F)F)c1 [Example 235, N-[4-(4-Fluoro-2-methoxy-phenyl)-pyridin-3-yl]-N-methyl-3-oxetan-3-yl-5-trifluoromethyl-benzamide] | 7.07
5 | CC(C)N(C(=O)c1cc(C(F)(F)F)cc(C(F)(F)F)c1)c1cnccc1-c1ccccc1Cl [Example 126, N-[4-(2-Chloro-phenyl)-pyridin-3-yl]-N-isopropyl-3,5-bis-trifluoromethyl-benzamide] | 6.21
6 | COc1cc(F)ccc1-c1ccncc1N(C)C(=O)c1cc(SCCO)cc(C(F)(F)F)c1 [Example 216, N-[4-(4-Fluoro-2-methoxy-phenyl)-pyridin-3-yl]-3-(2-hydroxy-ethylsulfanyl)-N-methyl-5-trifluoromethyl-benzamide] | 7.42
7 | COC(=O)CN(C(=O)c1cc(C(F)(F)F)cc(S(=O)(=O)N(C)C)c1)c1cnccc1-c1cccnc1OC [Example 178, Methyl 2-(3-(N,N-dimethylsulfamoyl)-N-(2-methoxy-3,4′-bipyridin-3′-yl)-5-(trifluoromethyl)benzamido)acetate] | 7.31
8 | COc1cc(C(=O)N(C)c2cnccc2-c2ccc(F)cc2OC)cc(Cl)n1 [Example 198, 2-Chloro-N-[4-(4-fluoro-2-methoxy-phenyl)-pyridin-3-yl]-6-methoxy-N-methyl-isonicotinamide] | 7.04
9 | COc1cc(F)ccc1-c1ccncc1N(C)C(=O)c1cc(C(F)(F)F)cc(S(=O)(=O)CCCCC(N)=O)c1 [Example 254, 3-(4-Carbamoyl-butane-1-sulfonyl)-N-[4-(4-fluoro-2-methoxy-phenyl)-pyridin-3-yl]-N-methyl-5-trifluoromethyl-benzamide] | 7.27
10 | COCCN(C(=O)c1cc(C(F)(F)F)cc(C(F)(F)F)c1)c1cnccc1-c1ccccc1Cl [Example 89, N-[4-(2-Chloro-phenyl)-pyridin-3-yl]-N-(2-methoxy-ethyl)-3,5-bis-trifluoromethyl-benzamide] | 8.10
11 | Cc1ccc(F)cc1-c1cc(Cl)ncc1N(C)C(=O)c1cc(C(F)(F)F)cc(S(C)(=O)=O)c1 [Example 253, N-[6-Chloro-4-(5-fluoro-2-methyl-phenyl)-pyridin-3-yl]-3-methanesulfonyl-N-methyl-5-trifluoromethyl-benzamide] | 5.52
12 | COc1ncccc1-c1ccncc1N(CC(N)=O)C(=O)c1cc(C(F)(F)F)cc(S(C)(=O)=O)c1 [Example 181, N-Carbamoylmethyl-3-methanesulfonyl-N-(2-methoxy-[3,4′]bipyridinyl-3′-yl)-5-trifluoromethyl-benzamide] | 5.53
13 | Cc1ccccc1-c1ccncc1N(C)C(=O)c1cc(NCCO)cc(C(F)(F)F)c1 [Example 271, 3-(2-Hydroxy-ethylamino)-N-methyl-N-(4-o-tolyl-pyridin-3-yl)-5-trifluoromethyl-benzamide] | 5.51
14 | COC(=O)CN(C(=O)c1cc(C(F)(F)F)cc(S(C)(=O)=O)c1)c1cnccc1-c1cc(F)ccc1OC [Example 297, [[4-(5-Fluoro-2-methoxy-phenyl)-pyridin-3-yl]-(3-methanesulfonyl-5-trifluoromethyl-benzoyl)-amino]-acetic acid methyl ester] | 6.28
15 | COc1cc(F)ccc1-c1ccncc1N(C)C(=O)c1cc(OCCO)cc(C(F)(F)F)c1 [Example 240, N-[4-(4-Fluoro-2-methoxy-phenyl)-pyridin-3-yl]-3-(2-hydroxy-ethoxy)-N-methyl-5-trifluoromethyl-benzamide] | 5.94
16 | Cc1ccccc1-c1ccncc1N(C)C(=O)c1cc(C(F)(F)F)nc(C(F)(F)F)c1 [Example 131, N-Methyl-N-(4-o-tolyl-pyridin-3-yl)-2,6-bis-trifluoromethyl-isonicotinamide] | 7.72
17 | COc1cc(F)ccc1-c1ccncc1N(C)C(=O)c1cc(SCCCCC(=O)O)cc(C(F)(F)F)c1 [Example 243, 5-(3-{[4-(4-Fluoro-2-methoxy-phenyl)-pyridin-3-yl]-methyl-carbamoyl}-5-trifluoromethyl-phenylsulfanyl)-pentanoic acid] | 6.21

Row | Structure (SMILES) | pEC50
18 | COC(=O)CN(C(=O)c1cc(C(F)(F)F)cc(S(C)(=O)=O)c1)c1cnccc1-c1cccnc1OC [Example 180, [(3-Methanesulfonyl-5-trifluoromethyl-benzoyl)-(2-methoxy-[3,4′]bipyridinyl-3′-yl)-amino]-acetic acid methyl ester] | 6.71
19 | Cc1ccccc1-c1cc(Cl)ncc1N(C)C(=O)c1cc(Cl)cc(Cl)c1 [Example 13, 3,5-Dichloro-N-(6-chloro-4-o-tolyl-pyridin-3-yl)-N-methyl-benzamide] | 6.24
20 | COC(=O)COc1cc(F)ccc1-c1ccncc1N(C)C(=O)c1cc(C(F)(F)F)cc(C(F)(F)F)c1 [Example 49, (2-{3-[(3,5-Bis-trifluoromethyl-benzoyl)-methyl-amino]-pyridin-4-yl}-5-fluoro-phenoxy)-acetic acid methyl ester] | 6.20
21 | COc1cc(F)ccc1-c1ccncc1N(CC(F)(F)F)C(=O)c1cc(C(F)(F)F)nc(C(F)(F)F)c1 [Example 147, N-[4-(4-Fluoro-2-methoxy-phenyl)-pyridin-3-yl]-N-(2,2,2-trifluoro-ethyl)-2,6-bis-trifluoromethyl-isonicotinamide] | 7.74
22 | CN(C(=O)c1cc(C(C)(C)O)cc(C(F)(F)F)c1)c1cnccc1-c1ccccc1Cl [Example 77, N-[4-(2-Chloro-phenyl)-pyridin-3-yl]-3-(1-hydroxy-1-methyl-ethyl)-N-methyl-5-trifluoromethyl-benzamide] | 6.15
23 | CN(C(=O)c1cc(C(F)(F)F)cc(C(F)(F)F)c1)c1cnccc1-c1ccccc1C#N [Example 36, N-[4-(2-Cyano-phenyl)-pyridin-3-yl]-N-methyl-3,5-bis-trifluoromethyl-benzamide] | 6.44
24 | COc1cc(F)ccc1-c1ccncc1N(C)C(=O)c1cc(SCCN)cc(C(F)(F)F)c1 [Example 237, 3-(2-Amino-ethylsulfanyl)-N-[4-(4-fluoro-2-methoxy-phenyl)-pyridin-3-yl]-N-methyl-5-trifluoromethyl-benzamide] | 6.47
25 | COc1ncccc1-c1ccncc1N(C)C(=O)c1cc(C(F)(F)F)cc(C(F)(F)F)c1 [Example 32, N-(2-Methoxy-[3,4′]bipyridinyl-3′-yl)-N-methyl-3,5-bis-trifluoromethyl-benzamide] | 8.05
26 | CN(C(=O)c1cc(CO)cc(C(F)(F)F)c1)c1cnccc1-c1ccccc1Cl [Example 76, N-[4-(2-Chloro-phenyl)-pyridin-3-yl]-3-hydroxymethyl-N-methyl-5-trifluoromethyl-benzamide] | 5.71
27 | Cc1ccccc1-c1ccncc1N(CCC#N)C(=O)c1cc(C(F)(F)F)cc(C(F)(F)F)c1 [Example 165, N-(2-Cyano-ethyl)-N-(4-o-tolyl-pyridin-3-yl)-3,5-bis-trifluoromethyl-benzamide] | 6.82
28 | O=C(c1cc(C(F)(F)F)cc(C(F)(F)F)c1)N(CC(F)(F)F)c1cnccc1-c1ccccc1Cl [Example 85, N-[4-(2-Chloro-phenyl)-pyridin-3-yl]-N-(2,2,2-trifluoro-ethyl)-3,5-bis-trifluoromethyl-benzamide] | 6.70
29 | COC(=O)CN(C(=O)c1cc(C(F)(F)F)nc(C(F)(F)F)c1)c1cnccc1-c1ccc(F)cc1OC [Example 176, {(2,6-Bis-trifluoromethyl-pyridine-4-carbonyl)-[4-(4-fluoro-2-methoxy-phenyl)-pyridin-3-yl]-amino}-acetic acid methyl ester] | 7.85
30 | CN(C(=O)c1cc(C(F)(F)F)cc(C(F)(F)F)c1)c1cnccc1-c1ccccc1 [Example 322, N-Methyl-N-(4-phenyl-pyridin-3-yl)-3,5-bis-trifluoromethyl-benzamide] | 7.96
31 | Cc1ccccc1-c1ccncc1N(C)C(=O)c1ccc(Cl)c(C(F)(F)F)c1 [Example 95, 4-Chloro-N-methyl-N-(4-o-tolyl-pyridin-3-yl)-3-trifluoromethyl-benzamide] | 7.04
32 | COC(=O)CN(C(=O)c1cc(C(F)(F)F)cc(S(C)(=O)=O)c1)c1cnccc1-c1cc(F)c(F)cc1OC [Example 172, [[4-(4,5-Difluoro-2-methoxy-phenyl)-pyridin-3-yl]-(3-methanesulfonyl-5-trifluoromethyl-benzoyl)-amino]-acetic acid methyl ester] | 6.20
33 | COc1cc(F)ccc1-c1ccncc1N(C)C(=O)c1cc(C(F)(F)F)cc(S(=O)(=O)CCN2CCC2)c1 [Example 265, 3-(2-Azetidin-1-yl-ethanesulfonyl)-N-[4-(4-fluoro-2-methoxy-phenyl)-pyridin-3-yl]-N-methyl-5-trifluoromethyl-benzamide] | 6.92
34 | COc1cc(F)ccc1-c1ccncc1N(C)C(=O)c1cc(C(F)(F)F)cc(S(=O)(=O)N2CC3(COC3)C2)c1 [Example 305, N-[4-(4-Fluoro-2-methoxy-phenyl)-pyridin-3-yl]-N-methyl-3-(2-oxa-6-aza-spiro[3.3]heptane-6-sulfonyl)-5-trifluoromethyl-benzamide] | 8.30

— patent US10385022B2, “3-amino-pyridines as GPBAR1 agonists” (HOFFMANN-LA ROCHE INC., priority 2011, dated 2019)
